The target of experiment [1] is human recombinant dopamine D2L receptor (Homo sapiens, UniProt P14416). Description: Dopamine D2L radioligand binding assay ([3H]Spiperone). Particulars: compound at 1 μM, 0.16 nM [3H]Spiperone, CHO cells, read-out: Percent Inhibition of ligand binding, Dopamine (1μM). The method, boiled down:
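Test compounds at 1 μM or lower (1% DMSO vehicle) incubated with 0.16 nM [3H]Spiperone for 120 min at 25 °C; nonspecific binding defined with 10 μM haloperidol. Filtration and counting of bound radioligand; values given as percent inhibition of specific binding.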

For experiment [2], the target named is T1, human recombinant serotonin (5-Hydroxytryptamine) 5-HT6 receptor (Homo sapiens, UniProt P50406).
T1 construct: expressed in transfected cells; host or cells: human HeLa cells
Description: Serotonin 5-HT6 radioligand binding assay ([3H]LSD). Particulars: HeLa cells; for inhibition at 0.1 µM: compound at 0.1 μM, read-out: Percent Inhibition of ligand binding, Serotonin (0.1 μM) 5-HT6; for inhibition at 1 µM: compound at 1 μM, read-out: Percent Inhibition of ligand binding, Serotonin (1 μM) 5-HT6. The procedure:
Compounds of the invention were incubated with 1.5 nM [3H]Lysergic acid diethylamide (LSD) for 120 min at 37° C. […] Receptor proteins were filtered and washed, the filters were then counted to determine [3H]LSD specifically bound. Compounds were screened at 1 μM or lower, using 1% DMSO as vehicle. Biochemical assay results are presented as the percent inhibition of specific binding in Table 4.

The target in experiment [3] is human recombinant serotonin (5-Hydroxytryptamine) 5-HT7 receptor (Homo sapiens, UniProt P34969). Description: Serotonin 5-HT7 radioligand binding assay ([3H]LSD). As to conditions: compound at 0.1 μM; 5.5 nM [3H]LSD; CHO cells; read-out: Percent Inhibition of ligand binding, Serotonin (0.1 μM) 5-HT7. The procedure: Compounds of invention were incubated with 5.5 nM [^3H] Lysergic acid diethylamide (LSD) for 2 h at 25° C. […] Receptor proteins were filtered and washed, the filters were then counted to determine [^3H]LSD specifically bound. Compounds were screened at 1 μM or lower, using 1% DMSO as vehicle. Biochemical assay results are presented as the percent inhibition of specific binding in Table 4.

Experiment [4] deals with T2, human recombinant adrenergic α2A receptor (Homo sapiens, UniProt P08913).
T2 construct: expressed in transfected cells; host or cells: insect Sf9 cells
T2 sequence (P08913 1-465): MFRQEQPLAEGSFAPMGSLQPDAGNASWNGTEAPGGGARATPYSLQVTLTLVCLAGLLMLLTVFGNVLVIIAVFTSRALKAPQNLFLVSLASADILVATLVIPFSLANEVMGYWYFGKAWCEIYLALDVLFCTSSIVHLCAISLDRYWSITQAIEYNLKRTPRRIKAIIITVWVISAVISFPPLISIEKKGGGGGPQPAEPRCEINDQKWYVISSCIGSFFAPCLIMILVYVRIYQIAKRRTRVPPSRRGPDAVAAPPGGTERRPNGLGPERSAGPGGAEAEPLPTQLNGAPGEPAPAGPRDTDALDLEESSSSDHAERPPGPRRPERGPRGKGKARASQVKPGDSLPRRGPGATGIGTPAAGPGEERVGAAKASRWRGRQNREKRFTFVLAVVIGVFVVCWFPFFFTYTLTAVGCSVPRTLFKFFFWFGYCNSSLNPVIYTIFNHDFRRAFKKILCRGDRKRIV
The experiment can be described thus: Adrenergic α2A radioligand binding assay ([3H]MK-912). As to conditions: 1 nM [3H]MK-912, insect Sf9 cells; for inhibition at 0.1 µM: compound at 0.1 μM, read-out: Percent Inhibition of ligand binding, Adrenergic (0.1 μM) a2A; for inhibition at 1 µM: compound at 1 μM, read-out: Percent Inhibition of ligand binding, Adrenergic (1 μM) a2A. The procedure:
To evaluate in radioligand binding assays the activity of compounds of the invention, human recombinant adrenergic α2A receptor expressed in insect Sf9 cells (Uhlen S et al. J. Pharmacol. Exp. Ther. 271:1558, 1994) in a modified Tris-HCl buffer (50 mM Tris-HCl, pH 7.4, 12.5 mM MgCl2, 2 mM EDTA) was used. Compounds of invention were incubated with 1 nM [^3H]MK-912 for 60 min at 25° C. MK912 is (2S-trans)-1,3,4,5′,6,6′,7,12b-octahydro-1′,3′-dimethyl-spiro[2H-benzofuro[2,3-a]quinolizine-2,4′(1′H)-pyrimidin]-2′(3′H)-one hydrochloride Non-specific binding was estimated in the presence of 10 μM WB-4101 (2-(2,6-dimethoxyphenoxyethyl)aminomethyl-1,4-benzodioxane hydrochloride). Receptor proteins were filtered and washed, the filters were then counted to determine [^3H]MK-912 specifically bound.

Experiment [5] deals with T3, human recombinant adrenergic α2B receptor (Homo sapiens, UniProt P18089).
T3 construct: expressed in transfected cells; host or cells: Chinese hamster ovary (CHO-K1) cells
T3 sequence (P18089 1-450): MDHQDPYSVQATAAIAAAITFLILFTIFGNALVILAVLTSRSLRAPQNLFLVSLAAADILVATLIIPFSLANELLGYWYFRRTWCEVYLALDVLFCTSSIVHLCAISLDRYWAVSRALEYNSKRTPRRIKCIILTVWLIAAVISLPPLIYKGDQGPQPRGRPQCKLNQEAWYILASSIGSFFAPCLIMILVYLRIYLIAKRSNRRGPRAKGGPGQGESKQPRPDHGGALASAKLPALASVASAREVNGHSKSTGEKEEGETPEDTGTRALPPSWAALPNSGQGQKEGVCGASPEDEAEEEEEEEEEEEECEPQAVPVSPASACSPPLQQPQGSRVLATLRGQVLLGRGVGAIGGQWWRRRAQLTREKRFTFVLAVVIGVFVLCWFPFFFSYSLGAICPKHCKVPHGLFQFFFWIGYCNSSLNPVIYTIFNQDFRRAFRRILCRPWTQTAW
Description: Adrenergic α2B radioligand binding assay ([3H]Rauwolscine). As to conditions: 2.5 nM [3H]Rauwolscine, CHO-K1 cells; for inhibition at 0.1 µM: compound at 0.1 μM, read-out: Percent Inhibition of ligand binding, Adrenergic (0.1 μM) a2B; for inhibition at 1 µM: compound at 1 μM, read-out: Percent Inhibition of ligand binding, Adrenergic (1 μM) a2B. The procedure: To evaluate in radioligand binding assays the activity of compounds of the invention, human recombinant adrenergic α2B receptor expressed in Chinese hamster ovary (CHO-K1) cells (Uhlen S et al., Eur. J. Pharmacol. 343(1):93, 1998) in a modified Tris-HCl buffer (50 mM Tris-HCl, pH 7.4, 12.5 mM MgCl2, 1 mM EDTA, 0.2% BSA) was used. Compounds of the invention were incubated with 2.5 nM [^3H]Rauwolscine for 60 min at 25° C. Non-specific binding was estimated in the presence of 10 μM Prozosin. Receptor proteins were filtered and washed, the filters were then counted to determine [^3H]Rauwolscine specifically bound.

Chain of human recombinant dopamine D2L receptor (P14416 whole entry): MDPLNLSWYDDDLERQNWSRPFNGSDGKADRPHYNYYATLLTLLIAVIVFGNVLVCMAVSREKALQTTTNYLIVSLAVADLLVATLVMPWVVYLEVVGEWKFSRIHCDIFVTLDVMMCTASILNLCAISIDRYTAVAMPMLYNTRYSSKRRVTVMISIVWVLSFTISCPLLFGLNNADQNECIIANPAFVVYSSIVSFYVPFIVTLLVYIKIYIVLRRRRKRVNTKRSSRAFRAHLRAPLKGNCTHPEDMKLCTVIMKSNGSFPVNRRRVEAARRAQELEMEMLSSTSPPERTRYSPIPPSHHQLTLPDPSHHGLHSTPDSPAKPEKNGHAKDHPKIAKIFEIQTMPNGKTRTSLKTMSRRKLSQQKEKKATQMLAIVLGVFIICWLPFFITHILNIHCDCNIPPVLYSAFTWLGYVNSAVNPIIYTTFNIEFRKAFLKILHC
T1 sequence (P50406 whole entry): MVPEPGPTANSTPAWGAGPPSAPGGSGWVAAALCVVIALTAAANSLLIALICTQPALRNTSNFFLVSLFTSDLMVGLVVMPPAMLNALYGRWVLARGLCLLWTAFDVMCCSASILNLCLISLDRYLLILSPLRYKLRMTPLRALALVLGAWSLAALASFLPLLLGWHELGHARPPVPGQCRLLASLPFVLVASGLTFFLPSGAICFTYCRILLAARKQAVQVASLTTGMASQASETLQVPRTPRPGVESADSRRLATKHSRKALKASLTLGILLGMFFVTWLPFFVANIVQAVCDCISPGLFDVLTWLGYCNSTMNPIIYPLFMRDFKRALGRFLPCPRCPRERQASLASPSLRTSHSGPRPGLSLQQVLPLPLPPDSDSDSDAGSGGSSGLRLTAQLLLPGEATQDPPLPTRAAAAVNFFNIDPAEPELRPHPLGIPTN
Chain of human recombinant serotonin (5-Hydroxytryptamine) 5-HT7 receptor (P34969 whole entry): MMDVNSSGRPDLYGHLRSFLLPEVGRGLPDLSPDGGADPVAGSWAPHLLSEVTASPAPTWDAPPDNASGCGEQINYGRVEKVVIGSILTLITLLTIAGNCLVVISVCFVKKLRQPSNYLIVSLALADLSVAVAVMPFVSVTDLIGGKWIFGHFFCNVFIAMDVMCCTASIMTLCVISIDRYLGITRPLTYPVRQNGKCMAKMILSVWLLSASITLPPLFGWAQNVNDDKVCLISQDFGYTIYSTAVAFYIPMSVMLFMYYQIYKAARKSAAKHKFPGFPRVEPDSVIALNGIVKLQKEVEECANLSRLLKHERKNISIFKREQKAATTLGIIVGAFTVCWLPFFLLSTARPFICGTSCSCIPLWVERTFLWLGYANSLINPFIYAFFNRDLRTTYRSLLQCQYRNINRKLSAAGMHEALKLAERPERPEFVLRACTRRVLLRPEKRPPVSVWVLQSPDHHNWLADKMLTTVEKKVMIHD

In the case of `Cc1ccc2c(c1)c1c(n2CC(C)(C)c2ccncc2)CCN(C)C1` [Compound 1-49, 2,8-dimethyl-5-(2-methyl-2-(pyridin-4-yl)propyl)-2,3,4,5-tetrahydro-1H-pyrido[4,3-b]indole], the inhibition at 1 µM in experiment [1] turned out to be 54%. The inhibition at 0.1 µM was 38% in experiment [2] and 95% in experiment [3].

As for `CCCC[C@](O)(Cn1c2c(c3cc(Cl)ccc31)CN(C)CC2)c1ccc(F)cc1` [Compound 1-61, (R)-1-(8-Chloro-2-methyl-3,4-dihydro-1H-pyrido[4,3-b]indol-5(2H)-yl)-2-(4-fluorophenyl)hexan-2-ol], the inhibition at 0.1 µM is -7% in experiment [4], 2% in experiment [5], 68% in experiment [2] and -12% in experiment [3]. Further, the inhibition at 1 µM in experiment [1] turned out to be 14%.

With `Cc1ccc2c(c1)c1c(n2CCc2ccc(CCCN)nc2)CCN(C)C1` [Compound 1-40, 3-(5-(2-(2,8-dimethyl-3,4-dihydro-1H-pyrido[4,3-b]indol-5(2H)-yl)ethyl)pyridin-2-yl)propan-1-amine], the inhibition at 1 µM turned out to be 31% in experiment [4], 63% in experiment [5], 3% in experiment [1] and 24% in experiment [2].

On to `CN1CCc2c(c3cc(Cl)c(Cl)cc3n2CC(C)(O)c2ccncc2)C1` (centres unmarked) [Compound 1-17, 1-(7,8-dichloro-2-methyl-3,4-dihydro-1H-pyrido[4,3-b]indol-5(2H)-yl)-2-(pyridin-4-yl)propan-2-ol], for which the inhibition at 0.1 µM in experiment [4] and in experiment [5] was 64% each time.

On to `Cc1ccc2c(c1)c1c(n2CCc2ccc(C)nc2)CCN(CCC#N)C1` [Compound 1-34, 3-(8-methyl-5-(2-(6-methylpyridin-3-yl)ethyl)-3,4-dihydro-1H-pyrido[4,3-b]indol-2(5H)-yl)propanenitrile], for which the inhibition at 1 µM in experiment [4] is 3%; in experiment [5], 23%; in experiment [1], -4%; in experiment [2] it was 6%.

Consider `CN1CCc2c(c3cc(Cl)ccc3n2CC(=O)c2ccccc2)C1` [Compound 1-36, 2-(8-chloro-2-methyl-3,4-dihydro-1H-pyrido[4,3-b]indol-5(2H)-yl)-1-phenylethanone], for which the inhibition at 1 µM in experiment [4] was 43%; in experiment [5] it was 92%; in experiment [1], 73%; in experiment [2] it was 71%.

Consider `CC[C@@](O)(Cn1c2c(c3cc(C)ccc31)CN(C)CC2)c1ccc(F)cc1` [Compound 1-66, (S)-1-(2,8-dimethyl-3,4-dihydro-1H-pyrido[4,3-b]indol-5(2H)-yl)-2-(4-fluorophenyl)butan-2-ol], for which the inhibition at 0.1 µM in experiment [4] was 29%; in experiment [2], 72%; in experiment [3], 19%. Further, in experiment [1], the inhibition at 1 µM worked out at 6%.

As for `CCCC[C@@](O)(Cn1c2c(c3cc(Cl)ccc31)CN(C)CC2)c1ccc(F)cc1` [Compound 1-67, (S)-1-(8-chloro-2-methyl-3,4-dihydro-1H-pyrido[4,3-b]indol-5(2H)-yl)-2-(4-fluorophenyl)hexan-2-ol], the values for the inhibition at 0.1 µM in experiment [5], in experiment [2] and in experiment [3] were -3%, 25% and -8%, respectively. Further, the inhibition at 1 µM in experiment [1] amounted to 20%.

For `Cc1ccc2c(c1)c1c(n2CC(C)c2ccncc2)CCN(C)C1` (centres unmarked) [Compound 1-46, 2,8-dimethyl-5-(2-(pyridin-4-yl)propyl)-2,3,4,5-tetrahydro-1H-pyrido[4,3-b]indole], the inhibition at 1 µM in experiment [1] came out at 37%. Besides, the inhibition at 0.1 µM in experiment [2] amounted to 45%; in experiment [3] it was 93%.

Take `Cc1ccc2c(c1)c1c(n2CC(C)(O)c2ccc(O)cc2)CCN(C)C1` (centres unmarked) [Compound 1-15, 4-(1-(2,8-dimethyl-3,4-dihydro-1H-pyrido[4,3-b]indol-5(2H)-yl)-2-hydroxypropan-2-yl)phenol]: the inhibition at 0.1 µM in experiment [4] turned out to be 32%; in experiment [5], 103%.

Consider `Cc1ccc2c(c1)c1c(n2CC(=O)c2ccccc2)CCN(C)C1` [Compound 1-35, 2-(2,8-dimethyl-3,4-dihydro-1H-pyrido[4,3-b]indol-5(2H)-yl)-1-phenylethanone], for which the inhibition at 1 µM in experiment [4] is 19%; in experiment [5], 59%; in experiment [1], 4%; in experiment [2], 14%.

For the molecule `CN1CCc2c(c3cc(Cl)ccc3n2CC(O)c2ccncc2)C1` (centres unmarked) [Compound 1-11, 2-(8-chloro-2-methyl-3,4-dihydro-1H-pyrido[4,3-b]indol-5(2H)-yl)-1-(pyridin-4-yl)ethanol], in experiment [4], the inhibition at 0.1 µM amounted to 41%.

On to `Cc1ccc2c(c1)c1c(n2CC(O)c2ccncc2)CCN(C)C1` (centres unmarked) [Compound 1-8, 2-(2,8-dimethyl-3,4-dihydro-1H-pyrido[4,3-b]indol-5(2H)-yl)-1-(pyridin-4-yl)ethanol], for which, in experiment [4], the inhibition at 0.1 µM turned out to be 37%.

On to `CC[C@@](O)(Cn1c2c(c3cc(C)ccc31)CN(C)CC2)c1ccncc1` [Compound 1-62, (S)-1-(2,8-Dimethyl-3,4-dihydro-1H-pyrido[4,3-b]indol-5(2H)-yl)-2-(pyridine-4-yl)butan-2-ol], for which the inhibition at 0.1 µM in experiment [4] came out at 10%; in experiment [2] it was 28%; in experiment [3], 30%. In experiment [1], the inhibition at 1 µM worked out at 9%.

With `COc1ccc([C@](C)(O)Cn2c3c(c4cc(C)ccc42)CN(C)CC3)cc1` [Compound 1-20, (S)-1-(2,8-Dimethyl-3,4-dihydro-1H-pyrido[4,3-b]indol-5(2H)-yl)-2-(4-methoxyphenyl)propan-2-ol], the inhibition at 0.1 µM in experiment [4] stood at 57%; in experiment [5] it was 79%.

As a reminder, the inhibition is the relative decrease from the control value, in per cent.

(Values after US9255094B2, “Pyrido[4,3-B]indoles and methods of use” (Medivation Technologies, Inc., priority 2009, dated 2016).)
